Measured values published in ChEMBL document CHEMBL2384934, “Discovery of 3-phenyl-1H-5-pyrazolylamine derivatives containing a urea pharmacophore as potent and efficacious inhibitors of FMS-like tyrosine kinase-3 (FLT3)” (Bioorg Med Chem, 2013).

Columns and labels:
[1] = target: Vascular endothelial growth factor receptor 2 (Homo sapiens, UniProt P35968); assay: biochemical; assay type: cell-based, Sf9
Description: Inhibition of recombinant GST tagged VEGFR2 (789 to 1356) (unknown origin) transfected in insect sf9 cells after 120 mins by wallac counting analysis

[2] = target: T1, Receptor-type tyrosine-protein kinase FLT3 (Homo sapiens, UniProt P36888); assay: biochemical; assay type: cell-based, Sf9
T1 sequence (P36888 whole entry): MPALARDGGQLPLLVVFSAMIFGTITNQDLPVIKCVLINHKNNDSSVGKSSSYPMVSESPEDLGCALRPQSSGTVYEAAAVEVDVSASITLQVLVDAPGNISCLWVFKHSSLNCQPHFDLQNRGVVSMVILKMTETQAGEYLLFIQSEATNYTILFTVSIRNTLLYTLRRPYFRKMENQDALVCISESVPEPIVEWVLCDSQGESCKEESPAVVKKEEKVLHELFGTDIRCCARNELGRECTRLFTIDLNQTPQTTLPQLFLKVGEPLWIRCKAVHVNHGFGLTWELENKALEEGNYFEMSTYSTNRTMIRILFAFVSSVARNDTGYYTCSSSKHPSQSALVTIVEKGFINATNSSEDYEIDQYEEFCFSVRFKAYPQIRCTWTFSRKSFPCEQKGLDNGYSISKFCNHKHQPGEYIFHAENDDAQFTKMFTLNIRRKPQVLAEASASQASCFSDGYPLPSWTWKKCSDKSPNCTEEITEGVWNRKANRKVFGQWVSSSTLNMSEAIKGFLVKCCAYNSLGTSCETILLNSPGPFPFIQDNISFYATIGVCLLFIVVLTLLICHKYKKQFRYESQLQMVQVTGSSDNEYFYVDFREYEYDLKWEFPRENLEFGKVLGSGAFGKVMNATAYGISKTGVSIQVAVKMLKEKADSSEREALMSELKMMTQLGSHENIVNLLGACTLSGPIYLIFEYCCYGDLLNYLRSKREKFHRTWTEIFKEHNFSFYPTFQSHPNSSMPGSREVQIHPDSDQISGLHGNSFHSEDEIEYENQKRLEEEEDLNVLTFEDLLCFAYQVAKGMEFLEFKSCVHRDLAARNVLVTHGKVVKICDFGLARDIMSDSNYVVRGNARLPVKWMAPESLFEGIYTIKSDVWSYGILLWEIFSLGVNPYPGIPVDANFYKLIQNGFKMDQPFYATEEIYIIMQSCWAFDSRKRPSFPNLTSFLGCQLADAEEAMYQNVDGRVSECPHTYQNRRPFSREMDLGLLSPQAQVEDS
Description: Inhibition of wild type GST tagged FLT3 kinase (567 to 993) (unknown origin) transfected in insect sf9 cells after 4 hrs by wallac counting analysis

MOLM-13 = assay: cells; settings: Homo sapiens, MOLM-13, 72 h
Aurora kinase A = target: T2, Aurora kinase A (Homo sapiens, UniProt O14965); assay: biochemical
T2 sequence (O14965 whole entry): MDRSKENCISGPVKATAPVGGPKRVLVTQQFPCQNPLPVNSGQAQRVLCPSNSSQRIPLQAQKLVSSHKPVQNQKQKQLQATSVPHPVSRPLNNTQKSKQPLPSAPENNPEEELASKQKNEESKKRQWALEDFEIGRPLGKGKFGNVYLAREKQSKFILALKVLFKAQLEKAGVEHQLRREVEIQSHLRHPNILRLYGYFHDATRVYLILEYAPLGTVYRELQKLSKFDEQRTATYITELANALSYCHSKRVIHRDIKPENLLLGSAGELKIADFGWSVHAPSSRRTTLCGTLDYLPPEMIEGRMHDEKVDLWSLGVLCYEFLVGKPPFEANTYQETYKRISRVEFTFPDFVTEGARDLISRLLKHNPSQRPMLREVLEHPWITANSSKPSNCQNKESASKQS
Description: Inhibition of recombinant GST tagged Aurora A kinase (123 to 401) (unknown origin) transfected in insect sf9 cells after 90 mins by wallac counting analysis

[3] = Half life in Sprague-Dawley rat at 2 mg/kg, iv; assay type: ADME, organism-based; set-up: dose 2 mg/kg, route intravenous; settings: in vivo
[4] = Volume of distribution at steady state in Sprague-Dawley rat at 2 mg/kg, iv; assay type: ADME, organism-based; set-up: dose 2 mg/kg, route intravenous; settings: in vivo, read-out: Vdss
[5] = Plasma clearance in Sprague-Dawley rat at 2 mg/kg, iv; assay type: ADME, organism-based; set-up: dose 2 mg/kg, route intravenous
[6] = AUC (0 to infinity) in Sprague-Dawley rat at 2 mg/kg, iv; assay type: ADME, organism-based; set-up: time infinity, dose 2 mg/kg, route intravenous; settings: plasma

Vascular endothelial growth factor receptor 2, sequence (P35968 whole entry): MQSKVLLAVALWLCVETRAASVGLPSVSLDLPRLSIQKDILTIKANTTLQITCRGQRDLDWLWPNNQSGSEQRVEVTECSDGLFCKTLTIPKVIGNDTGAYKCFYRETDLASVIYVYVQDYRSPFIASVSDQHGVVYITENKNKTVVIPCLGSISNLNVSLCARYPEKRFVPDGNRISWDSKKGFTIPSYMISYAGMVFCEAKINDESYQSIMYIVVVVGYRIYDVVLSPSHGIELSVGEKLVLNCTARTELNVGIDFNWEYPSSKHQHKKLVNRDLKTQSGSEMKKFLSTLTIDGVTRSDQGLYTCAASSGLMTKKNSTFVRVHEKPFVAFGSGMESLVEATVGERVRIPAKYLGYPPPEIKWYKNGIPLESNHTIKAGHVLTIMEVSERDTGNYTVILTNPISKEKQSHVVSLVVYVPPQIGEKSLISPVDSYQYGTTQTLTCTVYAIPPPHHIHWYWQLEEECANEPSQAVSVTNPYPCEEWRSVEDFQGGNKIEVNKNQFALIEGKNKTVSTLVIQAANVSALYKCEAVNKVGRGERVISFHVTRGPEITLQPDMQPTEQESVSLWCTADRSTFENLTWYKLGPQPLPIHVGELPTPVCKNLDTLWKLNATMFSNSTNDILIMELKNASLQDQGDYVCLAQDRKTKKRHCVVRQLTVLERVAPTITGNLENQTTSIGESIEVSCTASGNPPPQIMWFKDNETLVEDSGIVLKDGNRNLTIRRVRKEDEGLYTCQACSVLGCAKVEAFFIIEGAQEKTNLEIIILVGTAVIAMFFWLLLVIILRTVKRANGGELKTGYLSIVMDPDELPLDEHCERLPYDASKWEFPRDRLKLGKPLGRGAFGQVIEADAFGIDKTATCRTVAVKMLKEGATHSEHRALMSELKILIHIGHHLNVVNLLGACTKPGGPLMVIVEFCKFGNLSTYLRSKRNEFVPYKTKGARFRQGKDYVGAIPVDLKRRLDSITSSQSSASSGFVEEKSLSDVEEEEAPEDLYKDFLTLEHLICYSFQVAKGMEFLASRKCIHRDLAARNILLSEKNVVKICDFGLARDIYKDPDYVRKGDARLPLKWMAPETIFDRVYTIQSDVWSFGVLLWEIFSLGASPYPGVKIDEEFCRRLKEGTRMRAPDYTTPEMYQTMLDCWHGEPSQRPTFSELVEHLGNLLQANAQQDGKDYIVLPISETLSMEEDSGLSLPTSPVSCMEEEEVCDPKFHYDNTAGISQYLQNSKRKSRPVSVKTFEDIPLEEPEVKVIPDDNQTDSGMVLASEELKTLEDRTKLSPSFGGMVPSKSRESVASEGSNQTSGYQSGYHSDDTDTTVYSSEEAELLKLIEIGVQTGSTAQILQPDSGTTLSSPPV

Compound | IC50 [1] | IC50 [2] | GI50 (MOLM-13) | IC50 (Aurora kinase A) | half-life [3] | Vd [4] | clearance [5] | AUC(0-inf) [6]
Cc1nc(Nc2cc(-c3ccc(CNC(=O)Nc4cc(C)on4)cc3)n[nH]2)cc(N2CCN(C)CC2)n1 | 100 nM | 21 nM | 9 nM | 320 nM | – | – | – | –
CN1CCN(Cc2ccc(C(=O)Nc3cc(-c4ccc(CNC(=O)Nc5ccccc5)cc4)n[nH]3)cc2)CC1 | 82 nM | 22 nM | 4 nM | > 1000 nM | – | – | – | –
Cc1cc(NC(=O)Nc2ccc(-c3cc(NC(=O)c4ccc(N5CCN(C)CC5)cc4)[nH]n3)cc2C)no1 | 38 nM | 9 nM | 1 nM | 250 nM | – | – | – | –
CC(C)(C)c1cc(NC(=O)Nc2ccc(-c3cc(NC(=O)c4ccc(OCCN5CCOCC5)cc4)[nH]n3)cc2)no1 | 22 nM | 19 nM | 2 nM | 160 nM | – | – | – | –
CN1CCN(c2ccc(C(=O)Nc3cc(-c4ccc(NC(=O)Nc5cccnc5)cc4)n[nH]3)cc2)CC1 | 190 nM | 74 nM | 22 nM | 300 nM | – | – | – | –
Cc1cc(NC(=O)NCc2ccc(-c3cc(NC(=O)c4ccc(N5CCN(C)CC5)cc4)[nH]n3)cc2)no1 | 50 nM | 13 nM | 2 nM | 940 nM | – | – | – | –
Cc1cc(-c2cc(NC(=O)c3ccc(CN4CCN(C)CC4)cc3)[nH]n2)ccc1NC(=O)Nc1cc(C(C)(C)C)on1 | – | – | – | – | 1020 min | 10 L/kg | 11.3 mL/min/kg | 3020 ng·h/mL
CN1CCN(Cc2ccc(C(=O)Nc3cc(-c4ccc(NC(=O)Nc5cc(C(C)(C)C)on5)cc4)n[nH]3)cc2)CC1 | 12 nM | 8 nM | 1 nM | 160 nM | – | – | – | –
Cc1nc(Nc2cc(-c3ccc(NC(=O)Nc4ccccc4)cc3)n[nH]2)cc(N2CCN(C)CC2)n1 | 620 nM | 280 nM | 160 nM | 500 nM | – | – | – | –
CN1CCN(c2ccc(C(=O)Nc3cc(-c4cccc(NS(=O)(=O)c5ccccc5)c4)n[nH]3)cc2)CC1 | – | 11 nM | 21 nM | – | – | – | – | –
Cc1nc(Nc2cc(-c3ccc(CNC(=O)Nc4cc(C(C)(C)C)on4)cc3)n[nH]2)cc(N2CCNCC2)n1 | 85 nM | 26 nM | 8 nM | 710 nM | – | – | – | –
Cc1cc(NC(=O)Nc2ccc(-c3cc(NC(=O)c4ccc(N5CCN(C)CC5)cc4)[nH]n3)cc2Cl)no1 | > 1000 nM | 390 nM | 7 nM | 600 nM | – | – | – | –
O=C(NCc1ccc(-c2cc(NC(=O)c3ccc(OCCN4CCOCC4)cc3)[nH]n2)cc1)Nc1ccc(F)cc1 | 130 nM | 66 nM | 5 nM | > 1000 nM | – | – | – | –
CN1CCN(c2ccc(C(=O)Nc3cc(-c4ccc(NC(=O)Nc5ccccc5)cc4)n[nH]3)cc2)CC1 | 26 nM | 13 nM | 6 nM | 330 nM | – | – | – | –
CN1CCN(c2ccc(C(=O)Nc3cc(-c4ccc(NC(=O)Nc5ccccn5)cc4)n[nH]3)cc2)CC1 | 73 nM | 40 nM | 42 nM | 610 nM | – | – | – | –
Cc1nc(Nc2cc(-c3ccc(CNC(=O)Nc4cc(C(C)(C)C)on4)cc3)n[nH]2)cc(N2CCN(C)CC2)n1 | 12 nM | 35 nM | 3 nM | 120 nM | – | – | – | –
Cc1cnc(NC(=O)Nc2ccc(-c3cc(NC(=O)c4ccc(N5CCN(C)CC5)cc4)[nH]n3)cc2)s1 | 35 nM | 50 nM | 9 nM | 65 nM | – | – | – | –
Cc1nc(Nc2cc(-c3ccc(CNC(=O)Nc4cccc(Cl)c4)cc3)n[nH]2)cc(N2CCNCC2)n1 | 38 nM | 26 nM | 18 nM | 790 nM | – | – | – | –
O=C(NCc1ccc(-c2cc(NC(=O)c3ccc(OCCN4CCCC4)cc3)[nH]n2)cc1)OCc1ccccc1 | – | – | 2 nM | – | – | – | – | –
CN1CCN(c2ccc(C(=O)Nc3cc(-c4ccc(NC(=O)NC5CC5)cc4)n[nH]3)cc2)CC1 | 300 nM | 52 nM | 18 nM | > 1000 nM | – | – | – | –
Cc1nc(Nc2cc(-c3ccc(CNC(=O)Nc4cc(C(C)(C)C)on4)cc3)n[nH]2)cc(N2CCN(CCO)CC2)n1 | 50 nM | 95 nM | 5 nM | 490 nM | – | – | – | –
CN1CCN(Cc2ccc(C(=O)Nc3cc(-c4ccc(CNC(=O)Nc5cc(C(C)(C)C)on5)cc4)n[nH]3)cc2)CC1 | 18 nM | 4 nM | 3 nM | > 1000 nM | 660 min | 8 L/kg | 17.2 mL/min/kg | 2120 ng·h/mL
Cc1cc(NC(=O)Nc2ccc(-c3cc(NC(=O)c4ccc(N5CCN(C)CC5)cc4)[nH]n3)cc2)no1 | 31 nM | 6 nM | 3 nM | 120 nM | – | – | – | –
CC(C)(C)c1cc(NC(=O)Nc2ccc(-c3cc(NC(=O)c4ccc(OCCN5CCCC5)cc4)[nH]n3)cc2)no1 | 12 nM | 15 nM | 2 nM | 47 nM | – | – | – | –
CN1CCN(c2ccc(C(=O)Nc3cc(-c4ccc(NC(=O)Nc5cc(C(C)(C)C)on5)cc4)n[nH]3)cc2)CC1 | 12 nM | 30 nM | 5 nM | 53 nM | – | – | – | –
CCNC(=O)Nc1ccc(-c2cc(NC(=O)c3ccc(N4CCN(C)CC4)cc3)[nH]n2)cc1 | 100 nM | 94 nM | 33 nM | > 1000 nM | – | – | – | –
O=C(NCc1ccc(-c2cc(NC(=O)c3ccc(OCCN4CCOCC4)cc3)[nH]n2)cc1)Nc1ccccc1 | 54 nM | 9 nM | 3 nM | 760 nM | – | – | – | –
Cc1nc(Nc2cc(-c3ccc(CNC(=O)Nc4cc(C)on4)cc3)n[nH]2)cc(N2CCN(CCO)CC2)n1 | 120 nM | 17 nM | 16 nM | 98 nM | – | – | – | –
O=C(NCc1ccc(-c2cc(NC(=O)c3ccc(OCCN4CCOCC4)cc3)[nH]n2)cc1)Nc1ccc(Cl)cc1 | 71 nM | 16 nM | 3 nM | > 1000 nM | – | – | – | –
CN1CCN(c2ccc(C(=O)Nc3cc(-c4ccc(NC(=O)N5CCCC5)cc4)n[nH]3)cc2)CC1 | > 1000 nM | 70 nM | 37 nM | > 1000 nM | – | – | – | –
